{"source": "patent US20210355104A1", "about": "“ADENOSINE RECEPTOR BINDING COMPOUNDS” (Nikang Therapeuticsm Inc., priority 2018, published 2021)", "note": "Several values for one entry are separate records, joined by “and”; a condition that tells them apart may be missing. Identical values can stand only once."}
{"target": "Adenosine A2A receptor (Homo sapiens, UniProt P29274)", "sequence (P29274 whole entry)": "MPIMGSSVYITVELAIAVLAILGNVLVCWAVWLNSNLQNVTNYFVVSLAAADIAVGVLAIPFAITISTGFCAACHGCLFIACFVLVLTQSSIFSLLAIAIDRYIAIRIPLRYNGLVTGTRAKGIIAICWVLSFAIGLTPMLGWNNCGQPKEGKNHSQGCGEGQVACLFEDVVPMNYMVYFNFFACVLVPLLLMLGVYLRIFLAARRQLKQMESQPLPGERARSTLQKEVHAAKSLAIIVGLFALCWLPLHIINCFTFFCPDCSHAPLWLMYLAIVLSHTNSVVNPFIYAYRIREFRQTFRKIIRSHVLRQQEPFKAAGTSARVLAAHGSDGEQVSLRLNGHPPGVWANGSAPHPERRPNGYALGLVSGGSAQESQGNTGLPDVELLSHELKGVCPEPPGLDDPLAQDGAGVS", "assay": "cAMP assay in 293A cells stably expressing the adenosine A2A receptor (CGS21680 stimulation, HTRF)", "type": "cell-based", "parameters": "expressed in transfected cells; host or cells: 293A cells (Invitrogen, Cat# R705-07) infected with A2A-expressing lentivirus (custom packaged by Biosettia), puromycin selected", "conditions": "293A cells stably expressing A2A receptor; 0.1% BSA; 1 uM CGS21680 stimulation; replicate values separated by /; read-out: cAMP (nM) 0.1% BSA, 1 uM CGS", "description": "(§1) A 293A cell line (Invitrogen, Cat# R705-07) stably expressing the adenosine A2A receptor was generated in house. Briefly, 293A cells were seeded in 6-well plate and infected with A2A expressing lentivirus (custom packaged by Biosettia) and selected with puromycin (1 ug/ml). Cells survived selection were confirmed for A2A expression by RT-qPCR (RT Reagent: High-Capacity cDNA Reverse Transcription Kit, Applied Biosystems/Thermo Fisher Cat# 4368814, qPCR reagent: SYBR™ Green Master Mix, Applied Biosystems/Thermo Fisher Cat# 4309155). The cells were maintained in DMEM/F12 medium containing 10% FBS, 100 units/ml Penicillin, 100 μg/ml Streptomycin, and 1 μg/ml puromycin at 37° C., 5% CO2. 293A-A2AR cells were harvested on the day of assay and resuspended at 0.6 million cells/ml in DMEM/F12 with 0.1% BSA and 30 U/ml denosine deaminase(Roche, Cat #: 10102121001). Serial dilutions of compounds were prepared in DMEM/F12 with 0.1% BSA to a DMSO concentration of 0.6%. After 4 μl of compound dilutions were added, 4 μl suspended cells were dispensed into low-volume white 384-well plates (Greiner Bio-One). […] The assay plate was then incubated at room temperature for 30 min. 3 μl of d2 conjugated cAMP and 3 μl cryptate conjugated anti-cAMP antibody were then added. D2 conjugated cAMP and cryptate conjugated anti-cAMP antibody (Cisbio, Cat #: 62AM6PEC) were both prepared in cell lysis buffer according to the manufacturer's instruction. After 1 h incubation at room temperature, plates were read in CIARIOstar plate reader (BMG Labtech) using the HTRF detection mode."}
{"compound": "Cc1cc(-c2c(OCc3cc(C(C)(C)O)cc(C(C)(C)O)n3)nc(N)nc2-c2ccc(F)cc2)cc(C(F)F)n1", "note": "[Example 421, 2,2′-(6-(((2-amino-5-(2-(difluoromethyl)-6-methylpyridin-4-yl)-6-(4-fluorophenyl)pyrimidin-4-yl)oxy)methyl)pyridine-2,4-diyl)bis(propan-2-ol)]", "IC50": "3420 nM"}
{"compound": "Cc1cc(-c2c(OCc3nc(NCC(=O)O)cc4ccccc34)nc(N)nc2-c2ccc(F)cc2)cc(C(F)F)n1", "note": "[Example 406, (1-(((2-amino-5-(2-(difluoromethyl)-6-methylpyridin-4-yl)-6-(4-fluorophenyl)pyrimidin-4-yl)oxy)methyl)isoquinolin-3-yl)glycine]", "IC50": "719 nM"}
{"compound": "Cc1cc(-c2c(OCc3cccc(CN)n3)nc(N)nc2-c2ccc(F)cc2)cc(C(F)F)n1", "note": "[Example 412, 4-((6-(aminomethyl)pyridin-2-yl)methoxy)-5-(2-(difluoromethyl)-6-methylpyridin-4-yl)-6-(4-fluorophenyl)pyrimidin-2-amine]", "IC50": "503 nM and 747 nM"}
{"target": "Adenosine A2A receptor (Homo sapiens, UniProt P29274)", "assay": "cAMP assay in 293A cells stably expressing the adenosine A2A receptor (CGS21680 stimulation, HTRF)", "type": "cell-based", "parameters": "expressed in transfected cells; host or cells: 293A cells (Invitrogen, Cat# R705-07) infected with A2A-expressing lentivirus (custom packaged by Biosettia), puromycin selected", "conditions": "293A-A2AR cells, 0.1% BSA, 1 uM CGS; read-out: cAMP (nM) 0.1% BSA, 1 uM CGS", "description": "as §1"}
{"compound": "Cc1cc(-c2c(OCCOc3cccc(CO)n3)nc(N)nc2-c2ccc(F)cc2)cc(C(F)F)n1", "note": "[Example 304, (6-(2-((2-amino-5-(2-(difluoromethyl)-6-methylpyridin-4-yl)-6-(4-fluorophenyl)pyrimidin-4-yl)oxy)ethoxy)pyridin-2-yl)methanol]", "IC50": "681 nM"}
{"compound": "Cc1cc(-c2c(OCc3cc4ccccc4o3)nc(N)nc2-c2ccc(F)cc2)cc(C(F)F)n1", "note": "[Example 331, 4-(benzofuran-2-ylmethoxy)-5-(2-(difluoromethyl)-6-methylpyridin-4-yl)-6-(4-fluorophenyl)pyrimidin-2-amine]", "IC50": "648 nM"}
{"compound": "Cc1cc(-c2c(OCCn3cccc(C(=O)O)c3=O)nc(N)nc2-c2ccc(F)cc2)cc(C(F)F)n1", "note": "[Example 335, 1-(2-((2-amino-5-(2-(difluoromethyl)-6-methylpyridin-4-yl)-6-(4-fluorophenyl)pyrimidin-4-yl)oxy)ethyl)-2-oxo-1,2-dihydropyridine-3-carboxylic acid]", "IC50": "> 25000 nM"}
{"compound": "CCc1nn(CC(C)(C)C(=O)O)nc1COc1nc(N)nc(-c2ccc(F)cc2)c1-c1cc(C)nc(C(F)F)c1", "note": "[Example 300, 3-(4-(((2-amino-5-(2-(difluoromethyl)-6-methylpyridin-4-yl)-6-(4-fluorophenyl)pyrimidin-4-yl)oxy)methyl)-5-ethyl-2H-1,2,3-triazol-2-yl)-2,2-dimethylpropanoic acid]", "IC50": "> 10000 nM"}
{"compound": "Cc1cc(-c2c(OCc3nc4ccccc4o3)nc(N)nc2-c2ccc(F)cc2)cc(C(F)F)n1", "note": "[Example 342, 4-(benzo[d]oxazol-2-ylmethoxy)-5-(2-(difluoromethyl)-6-methylpyridin-4-yl)-6-(4-fluorophenyl)pyrimidin-2-amine]", "IC50": "419 nM"}
{"compound": "CCc1nn(C[C@@H](O)CO)nc1COc1nc(N)nc(-c2ccc(F)cc2)c1-c1cc(C)nc(C(F)F)c1", "note": "[Example 288, (R)-3-(4-(((2-amino-5-(2-(difluoromethyl)-6-methylpyridin-4-yl)-6-(4-fluorophenyl)pyrimidin-4-yl)oxy)methyl)-5-ethyl-2H-1,2,3-triazol-2-yl)propane-1,2-diol]", "IC50": "2390 nM"}
{"compound": "Cc1cc(-c2c(OCc3cccc(OCCC(C)(C)C(=O)O)n3)nc(N)nc2-c2ccc(F)cc2)cc(C(F)F)n1", "note": "[Example 338, 4-((6-(((2-amino-5-(2-(difluoromethyl)-6-methylpyridin-4-yl)-6-(4-fluorophenyl)pyrimidin-4-yl)oxy)methyl)pyridin-2-yl)oxy)-2,2-dimethylbutanoic acid]", "IC50": "2890 nM"}
{"compound": "Cc1cc(-c2c(OCc3cccc(N4CC[C@@H](C(=O)O)C4)n3)nc(N)nc2-c2ccc(F)cc2)cc(C(F)F)n1", "note": "[Example 310, (R)-1-(6-(((2-amino-5-(2-(difluoromethyl)-6-methylpyridin-4-yl)-6-(4-fluorophenyl)pyrimidin-4-yl)oxy)methyl)pyridin-2-yl)pyrrolidine-3-carboxylic acid]", "IC50": "2490 nM"}
{"compound": "Cc1cc(-c2c(OCc3nc4c(C(C)(C)O)cccc4n3C)nc(N)nc2-c2ccc(F)cc2)cc(C(F)F)n1", "note": "[Example 361, 2-(2-(((2-amino-5-(2-(difluoromethyl)-6-methylpyridin-4-yl)-6-(4-fluorophenyl)pyrimidin-4-yl)oxy)methyl)-1-methyl-1H-benzo[d]imidazol-4-yl)propan-2-ol]", "IC50": "854 nM and 1110 nM"}
{"compound": "CCN1C(=O)OCC1COc1nc(N)nc(-c2ccc(F)cc2)c1-c1cc(C)nc(C(F)F)c1", "note": "(stereo not drawn) [Example 235, 4-(((2-amino-5-(2-(difluoromethyl)-6-methylpyridin-4-yl)-6-(4-fluorophenyl)pyrimidin-4-yl)oxy)methyl)-3-ethyloxazolidin-2-one]", "IC50": "3710 nM"}
{"compound": "CCn1c(COc2nc(N)nc(-c3ccc(F)cc3)c2-c2cc(C)nc(C(F)F)c2)nc2cccc(C(=O)O)c21", "note": "[Example 344, 2-(((2-amino-5-(2-(difluoromethyl)-6-methylpyridin-4-yl)-6-(4-fluorophenyl)pyrimidin-4-yl)oxy)methyl)-1-ethyl-1H-benzo[d]imidazole-7-carboxylic acid]", "IC50": "> 25000 nM"}
{"compound": "Cc1cc(-c2c(OCCc3cccnc3)nc(N)nc2-c2ccc(F)cc2)cc(C(F)F)n1", "note": "[Example 299, 5-(2-(difluoromethyl)-6-methylpyridin-4-yl)-4-(4-fluorophenyl)-6-(2-(pyridin-3-yl)ethoxy)pyrimidin-2-amine]", "IC50": "1110 nM"}
{"compound": "Cc1cc(-c2c(OCc3ccc4ccccc4n3)nc(N)nc2-c2ccc(F)cc2)cc(C(F)F)n1", "note": "[Example 380, 5-(2-(difluoromethyl)-6-methylpyridin-4-yl)-4-(4-fluorophenyl)-6-(quinolin-2-ylmethoxy)pyrimidin-2-amine]", "IC50": "548 nM and 469 nM and 502 nM"}
{"compound": "Cc1cc(-c2c(OCc3ccnn3CC3CC3)nc(N)nc2-c2ccc(F)cc2)cc(C(F)F)n1", "note": "[Example 229, 4-((1-(cyclopropylmethyl)-1H-pyrazol-5-yl)methoxy)-5-(2-(difluoromethyl)-6-methylpyridin-4-yl)-6-(4-fluorophenyl)pyrimidin-2-amine]", "IC50": "107 nM"}
{"compound": "Cc1cc(-c2c(OCc3nnn[nH]3)nc(N)nc2-c2ccc(F)cc2)cc(C(F)F)n1", "note": "[Example 269, 4-((1H-tetrazol-5-yl)methoxy)-5-(2-(difluoromethyl)-6-methylpyridin-4-yl)-6-(4-fluorophenyl)pyrimidin-2-amine]", "IC50": "> 25000 nM"}
{"compound": "Cc1cc(-c2c(OCc3cccc(C(O)CO)n3)nc(N)nc2-c2ccc(F)cc2)cc(C(F)F)n1", "note": "(stereo not drawn) [Example 303, 1-(6-(((2-amino-5-(2-(difluoromethyl)-6-methylpyridin-4-yl)-6-(4-fluorophenyl)pyrimidin-4-yl)oxy)methyl)pyridin-2-yl)ethane-1,2-diol]", "IC50": "965 nM"}
{"compound": "CCc1c(COc2nc(N)nc(-c3ccc(F)cc3)c2-c2cc(C)nc(C(F)F)c2)nnn1CC(O)COC", "note": "(stereo not drawn) [Example 323, 1-(4-(((2-amino-5-(2-(difluoromethyl)-6-methylpyridin-4-yl)-6-(4-fluorophenyl)pyrimidin-4-yl)oxy)methyl)-5-ethyl-1H-1,2,3-triazol-1-yl)-3-methoxypropan-2-ol]", "IC50": "1680 nM"}
{"compound": "CCn1c(COc2nc(N)nc(-c3ccc(F)cc3)c2-c2cc(C)nc(C(F)F)c2)nc2ccc(C(=O)O)cc21", "note": "[Example 332, 2-(((2-amino-5-(2-(difluoromethyl)-6-methylpyridin-4-yl)-6-(4-fluorophenyl)pyrimidin-4-yl)oxy)methyl)-1-ethyl-1H-benzo[d]imidazole-6-carboxylic acid]", "IC50": "> 5000 nM"}
{"compound": "Cc1cc(-c2c(OC[C@H]3CC[C@H](C(=O)O)CC3)nc(N)nc2-c2ccc(F)cc2)cc(C(F)F)n1", "note": "[Example 279, (1,4-trans)-4-(((2-amino-5-(2-(difluoromethyl)-6-methylpyridin-4-yl)-6-(4-fluorophenyl)pyrimidin-4-yl)oxy)methyl)cyclohexane-1-carboxylic acid]", "IC50": "> 25000 nM"}
{"compound": "Cc1cc(-c2c(OCCN(C)c3nccc(C(C)(C)C#N)n3)nc(N)nc2-c2ccc(F)cc2)cc(C(F)F)n1", "note": "[Example 372, 2-(2-((2-((2-amino-5-(2-(difluoromethyl)-6-methylpyridin-4-yl)-6-(4-fluorophenyl)pyrimidin-4-yl)oxy)ethyl)(methyl)amino)pyrimidin-4-yl)-2-methylpropanenitrile]", "IC50": "128 nM and 130 nM and 160 nM"}
{"compound": "CCc1c(COc2nc(N)nc(-c3cccc(C#N)c3C)c2-c2cc(C)nc(C(F)F)c2)nnn1CC", "note": "[Example 256, 3-(2-amino-6-((1,5-diethyl-1H-1,2,3-triazol-4-yl)methoxy)-5-(2-(difluoromethyl)-6-methylpyridin-4-yl)pyrimidin-4-yl)-2-methylbenzonitrile]", "IC50": "2910 nM"}
